Measured values reported in patent publication US20240190876A1, “Tricyclic Urea Compounds As JAK2 V617F Inhibitors” (Incyte Corporation, priority 2022, published 2024).

Tests used:
[1] = In Vivo Pharmacokinetics, rat oral dosing; parameters: species or system Sprague Dawley rats; details: male, Sprague Dawley, oral gavage 3.0 mg/kg, plasma, cassette dosing
Description: Test compounds were administered to male Sprague Dawley rats or male and female Cynomolgus monkeys intravenously or via oral gavage. For intravenous (IV) dosing, test compounds were dosed at 1 mg/kg using a formulation of 10% dimethylacetamide (DMAC), 10% propylene glycol (PG) in acidified saline via IV bolus for rat or 10 min IV infusion for monkey. For oral (PO) dosing, test compounds were dosed at 3.0 mg/kg using 5% DMAC in 0.5% methylcellulose in citrate buffer (pH -2.5). Blood samples were collected at predose and various time points up to 24 hours postdose. All blood samples were collected using EDTA as the anticoagulant and centrifuged to obtain plasma samples. The plasma concentrations of test compounds were determined by LC-MS/MS methods. The measured plasma concentrations were used to calculate PK parameters by standard noncompartmental methods using Phoenix© WinNonlin software program (version 8.0, Pharsight Corporation) or similar software. In rats and monkeys, cassette dosing of test compounds were conducted to obtain preliminary PK parameters. In vivo pharmacokinetic experiments with male beagle dogs may be performed under the conditions described above.

[2] = target: T1, pseudo-kinase domain (JH2) of human V617F mutant JAK2 (Homo sapiens, UniProt O60674, F794H/V617F/W659A/W777A); experiment: JAK2 LanthaScreen JH2-V617F Binding Assay; details: 50 nM JAK2-JH2 tracer, 1 hour at 25° C., read-out: JH2 V617F Bind IC50
T1 construct: pseudo-kinase domain (JH2, amino-acids 536-812 with 3 surface mutations W659A, W777A, F794H); His (C); purchased BPS Bioscience 79498; host or cells: baculovirus expression system
T1 sequence (O60674 536-812 V617F/W659A/W777A/F794H): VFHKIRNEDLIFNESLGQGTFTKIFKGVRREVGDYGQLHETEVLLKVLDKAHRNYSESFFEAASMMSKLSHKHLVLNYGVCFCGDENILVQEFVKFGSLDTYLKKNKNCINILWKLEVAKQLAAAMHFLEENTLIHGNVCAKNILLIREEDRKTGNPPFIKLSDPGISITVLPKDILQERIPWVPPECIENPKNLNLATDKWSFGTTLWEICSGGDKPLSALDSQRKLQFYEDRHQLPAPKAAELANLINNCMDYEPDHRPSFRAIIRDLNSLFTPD
Description: JAK2 JH2-V617F binding assay utilizes pseudo-kinase domain (JH2, amino-acids 536-812 with 3 surface mutations W659A, W777A, F794H) of human V617F mutant JAK2 expressed as C-terminal His-Avi-tagged, biotinylated protein in a baculovirus expression system (BPS Bioscience, Catalog #79498). The assay was conducted in black 384-well polystyrene plates in a final reaction volume of 20 μL. JAK2 JH2-V617F (0.26 nM) was incubated with compounds (100 nL serially diluted in DMSO) in the presence of 50 nM Fluorescent JAK2-JH2 Tracer (MedChem Express Catalog #HY-102055) and 0.25 nM Streptavidin-Tb cryptate (Cisbio Part #610SATLB) in assay buffer (50 mM Tris, pH=7.5, 10 mM MgCl2, 0.01% Brij-35, 0.1% BSA, 1 mM EGTA, 5% Glycerol and 5 mM DTT). Non-specific binding was accessed in the presence of 2 mM ATP. After incubation for 1 hour at 25° C., LanthaScreen signals were read on a PHERAstar FS plate reader (BMG LABTECH). Data was analyzed with IDBS XLfit and GraphPad Prism 5.0 software using a four parameter dose response curve to determine IC50 for each compound.

[3] = target: T2, catalytic domain (JH1) of human JAK2 (Homo sapiens, UniProt O60674); experiment: JAK2 LanthaScreen JH1 Binding Assay; details: 50 nM JAK2-JH1 tracer, 2 hours at 25° C., read-out: JH1 Bind IC50
T2 construct: catalytic domain (JH1, amino acids 826-1132) of human JAK2; FLAG (N); purchased Carna Biosciences 08-445-20N; host or cells: baculovirus expression system
T2 sequence (O60674 826-1132): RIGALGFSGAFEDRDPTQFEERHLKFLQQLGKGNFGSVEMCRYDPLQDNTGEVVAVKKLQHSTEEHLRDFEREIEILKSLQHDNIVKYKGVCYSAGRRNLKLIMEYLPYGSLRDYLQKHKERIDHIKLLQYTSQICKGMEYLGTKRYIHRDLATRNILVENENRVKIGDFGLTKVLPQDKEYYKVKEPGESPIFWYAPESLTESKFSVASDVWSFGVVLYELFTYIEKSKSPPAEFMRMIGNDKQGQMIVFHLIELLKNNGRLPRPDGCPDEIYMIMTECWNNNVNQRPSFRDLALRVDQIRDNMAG
Description: JAK2 JH1 binding assay utilizes catalytic domain (JH1, amino acids 826-1132) of human JAK2 expressed as N-terminal FLAG-tagged, biotinylated protein in a baculovirus expression system (Carna Biosciences, Product #08-445-20N). The assay was conducted in black 384-well polystyrene plates in a final reaction volume of 20 μL. JAK2 JH1 (1.5 nM) was incubated with compounds (100 nL serially diluted in DMSO) in the presence of 50 nM fluorescent JAK2-JH1 tracer and 0.5 nM Streptavidin-Tb cryptate (Cisbio Part #610SATLB) in assay buffer (50 mM Tris, pH=7.5, 10 mM MgCl2, 0.01% Brij-35, 0.1% BSA, 1 mM EGTA, 5% Glycerol and 5 mM DTT). Non-specific binding was accessed in the presence of 2 mM ATP. After incubation for 2 hours at 25° C., LanthaScreen signals were read on a PHERAstar FS plate reader (BMG LABTECH). Data was analyzed with IDBS XLfit and GraphPad Prism 5.0 software using a four parameter dose response curve to determine IC50 for each compound.

KIT [4] = target: KIT (Homo sapiens, UniProt P10721); experiment: KIT Enzymatic Assay; assay type: biochemical; details: HTRF kinase assay, 1 mM ATP
KIT (Homo sapiens, UniProt P10721), sequence (P10721 26-976, species assumed): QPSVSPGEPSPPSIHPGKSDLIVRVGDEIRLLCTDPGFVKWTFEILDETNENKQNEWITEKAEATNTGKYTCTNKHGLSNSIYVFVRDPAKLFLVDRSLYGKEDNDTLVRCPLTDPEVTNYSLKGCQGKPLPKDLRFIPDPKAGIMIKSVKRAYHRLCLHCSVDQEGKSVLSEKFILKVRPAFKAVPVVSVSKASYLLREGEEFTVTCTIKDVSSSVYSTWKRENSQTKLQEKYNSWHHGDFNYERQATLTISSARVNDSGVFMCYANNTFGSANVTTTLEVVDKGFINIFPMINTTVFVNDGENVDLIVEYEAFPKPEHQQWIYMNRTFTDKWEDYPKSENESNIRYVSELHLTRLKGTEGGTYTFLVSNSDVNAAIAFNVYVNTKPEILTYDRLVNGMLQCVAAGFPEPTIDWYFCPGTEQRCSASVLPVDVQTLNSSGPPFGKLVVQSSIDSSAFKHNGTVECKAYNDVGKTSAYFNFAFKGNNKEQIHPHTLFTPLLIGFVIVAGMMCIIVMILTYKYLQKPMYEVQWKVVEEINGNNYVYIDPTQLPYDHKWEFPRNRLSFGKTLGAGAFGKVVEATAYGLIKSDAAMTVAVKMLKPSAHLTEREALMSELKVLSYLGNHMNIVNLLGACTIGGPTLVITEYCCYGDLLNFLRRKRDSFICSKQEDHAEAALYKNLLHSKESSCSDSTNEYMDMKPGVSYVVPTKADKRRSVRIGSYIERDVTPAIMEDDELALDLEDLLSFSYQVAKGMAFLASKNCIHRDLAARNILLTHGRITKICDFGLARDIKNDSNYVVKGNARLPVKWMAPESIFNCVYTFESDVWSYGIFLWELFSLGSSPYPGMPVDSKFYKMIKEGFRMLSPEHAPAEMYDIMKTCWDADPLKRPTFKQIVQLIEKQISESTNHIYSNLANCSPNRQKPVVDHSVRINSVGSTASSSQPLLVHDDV
Description: (§1) The kinase assays were carried out at room temperature in assay buffer (HEPES 50 mM, pH 7.0, NaN3 0.02%, BSA 0.01%, Orthovanadate 0.1 mM, DTT 1 mM, MgCl2 10 mM) in a final volume of 10 μL. Testing compounds were prepared by serial dilution in DMSO and transferred to the plate wells by ECHO liquid handler (Labcyte) with 0.5% DMSO in the final assay. […]. Reactions were initiated by the addition of 5 μL ATP in assay buffer. The final 10 μL kinase reaction consists of 0.12 nM KIT, 1 mM ATP, 500 nM TK Substrate-biotin and SEB reagent 62.5 nM in assay buffer. […] The plates were then sealed and centrifuged at 1800 rpm for 2 minutes. After 60 minutes incubation at room temperature, the product activity was determined by measuring the fluorescence at 620 nm and 665 nm on Pherastar microplate reader (BMG Labtech). A ratio is calculated (665/620 nm) for each well. Wells with DMSO only were served as the positive controls and wells containing no ATP were used as negative controls. IC50 determination was performed by fitting the curve of percent control activity versus the log of the compound concentration using the GraphPad Prism 7.0 software.

KIT [5] = experiment: KIT Enzymatic Assay; assay type: biochemical; details: ratio KIT IC50 / JH2 V617F binding IC50
Description: as §1

Compound: COc1ccc(-c2c(-c3cn(C)nc3OC)[nH]c3ncc4c(c23)n([C@H]2CC[C@@](C)(NC(=O)C3CC3)CC2)c(=O)n4C)cc1 [Example 1, N-((1s,4s)-4-(7-(3-Methoxy-1-methyl-1H-pyrazol-4-yl)-8-(4-methoxyphenyl)-3-methyl-2-oxo-3,6-dihydroimidazo[4,5-d]pyrrolo[2,3-b]pyridin-1(2H)-yl)-1-methylcyclohexyl)cyclopropanecarboxamide]
- AUC [1]: > 1.5 µM·h
- IC50 [2]: ≤ 10 nM
- IC50 [3]: > 1000 nM
- IC50 (KIT [4]): > 2500 nM
- Selectivity KIT/JH2 V617F (KIT [5]): ****** (****** refers to selectivity of >12500-fold)

Compound: [2H]C([2H])([2H])n1ncc2cc(-c3c(-c4cn(C)nc4OC)[nH]c4ncc5c(c34)n([C@H]3CC[C@@](C)(NC(=O)C4CC4)CC3)c(=O)n5C)ccc21 [Example 2, N-((1s,4s)-4-(7-(3-Methoxy-1-methyl-1H-pyrazol-4-yl)-3-methyl-8-(1-(methyl-d3)-1H-indazol-5-yl)-2-oxo-3,6-dihydroimidazo[4,5-d]pyrrolo[2,3-b]pyridin-1(2H)-yl)-1-methylcyclohexyl)cyclopropanecarboxamide]
- AUC [1]: 0.5 to 1.5 µM·h
- IC50 [2]: ≤ 10 nM
- IC50 [3]: > 1000 nM
- IC50 (KIT [4]): > 2500 nM
- Selectivity KIT/JH2 V617F (KIT [5]): ****** (****** refers to selectivity of >12500-fold)

Compound: [2H]C([2H])([2H])n1cc(-c2[nH]c3ncc4c(c3c2-c2ccc(OC)cc2)n([C@H]2CC[C@@](C)(NC(=O)C3CC3)CC2)c(=O)n4C)c(F)n1 [Example 3, N-((1s,4s)-4-(7-(3-fluoro-1-(methyl-d3)-1H-pyrazol-4-yl)-8-(4-methoxyphenyl)-3-methyl-2-oxo-3,6-dihydroimidazo[4,5-d]pyrrolo[2,3-b]pyridin-1(2H)-yl)-1-methylcyclohexyl)cyclopropanecarboxamide]
- AUC [1]: > 1.5 µM·h
- IC50 [2]: ≤ 10 nM
- IC50 [3]: > 1000 nM
- IC50 (KIT [4]): 250 to 1250 nM
- Selectivity KIT/JH2 V617F (KIT [5]): **** (**** refers to selectivity of >1750-fold to ≤5000-fold)

Compound: [2H]C([2H])([2H])n1cc(-c2[nH]c3ncc4c(c3c2-c2ccc3c(cnn3C([2H])([2H])[2H])c2)n([C@H]2CC[C@@](C)(NC(=O)C3CC3)CC2)c(=O)n4C)c(F)n1 [Example 4, N-((1s,4s)-4-(7-(3-fluoro-1-(methyl-d3)-1H-pyrazol-4-yl)-3-methyl-8-(1-(methyl-d3)-1H-indazol-5-yl)-2-oxo-3,6-dihydroimidazo[4,5-d]pyrrolo[2,3-b]pyridin-1(2H)-yl)-1-methylcyclohexyl)cyclopropanecarboxamide]
- AUC [1]: ≤ 0.5 µM·h
- IC50 [2]: ≤ 10 nM
- IC50 [3]: > 1000 nM
- IC50 (KIT [4]): 250 to 1250 nM
- Selectivity KIT/JH2 V617F (KIT [5]): **** (**** refers to selectivity of >1750-fold to ≤5000-fold)

Compound: [2H]C([2H])([2H])n1ncc2cc(-c3c(-c4cn(CC)nc4F)[nH]c4ncc5c(c34)n([C@H]3CC[C@@](C)(NC(=O)C4CC4)CC3)c(=O)n5C)ccc21 [Example 5, N-((1s,4s)-4-(7-(1-Ethyl-3-fluoro-1H-pyrazol-4-yl)-3-methyl-8-(1-(methyl-d3)-1H-indazol-5-yl)-2-oxo-3,6-dihydroimidazo[4,5-d]pyrrolo[2,3-b]pyridin-1(2H)-yl)-1-methylcyclohexyl)cyclopropanecarboxamide]
- AUC [1]: > 1.5 µM·h
- IC50 [2]: ≤ 10 nM
- IC50 [3]: > 1000 nM
- IC50 (KIT [4]): 250 to 1250 nM
- Selectivity KIT/JH2 V617F (KIT [5]): **** (**** refers to selectivity of >1750-fold to ≤5000-fold)

Compound: [2H]C([2H])([2H])n1cc(-c2[nH]c3ncc4c(c3c2-c2ccc(OC)cc2)n([C@H]2CC[C@@](C)(NC(=O)[C@H]3C[C@H]3F)CC2)c(=O)n4C([2H])([2H])[2H])c(F)n1 [Example 6, (1R,2R)-2-Fluoro-N-((1s,4S)-4-(7-(3-fluoro-1-(methyl-d3)-1H-pyrazol-4-yl)-8-(4-methoxyphenyl)-3-(methyl-d3)-2-oxo-3,6-dihydroimidazo[4,5-d]pyrrolo[2,3-b]pyridin-1(2H)-yl)-1-methylcyclohexyl)cyclopropane-1-carboxamide]
- AUC [1]: > 1.5 µM·h
- IC50 [2]: ≤ 10 nM
- IC50 [3]: > 1000 nM
- IC50 (KIT [4]): 250 to 1250 nM
- Selectivity KIT/JH2 V617F (KIT [5]): ***** (***** refers to selectivity of >5000-fold to ≤12500-fold)
